Measured values published in patent US8518942B2, “Caspase inhibitors and uses thereof” (Buck Institute for Research on Aging, priority 2008, dated 2013).

Key:
Assay type in all cases: biochemical
caspase-8 = biological target: T1, caspase-8 (Homo sapiens, UniProt Q14790); assay: Irreversible inhibitor kinetic assay (progress curve), caspase-8, substrate Ac-DEVD-AMC; conditions: casp-8; duplicate, SD included
T1 construct: gift: Guy Salvesen's laboratory, Burnham Institute (La Jolla, Calif.)
Text: (§1) Caspases-3, -6, -7, -8, and -9 were provided by Guy Salvesen's laboratory at the Burnham Institute (La Jolla, Calif.). Caspase-1 was purchased from EMD Biosciences (San Diego, Calif.) and Caspase-2 was purchased from Biomol International (Plymouth Meeting, Pa.). Caspase substrates Ac-DEVD-AMC, Ac-VDVAD-AFC, and Ac-LEHD-AFC were purchased from EMD Biosciences (San Diego, Calif.) and Ac-VDVAD-AMC was purchased from Biomol International (Plymouth Meeting, Pa.). The proteolytic cleavage of N-acyl aminocoumarins by caspases was conducted in Dynatech Microfluor fluorescence 96-well microtiter plates, and readings were taken on a Molecular Devices Spectra Max Gemini XS instrument. The excitation wavelength was 370 nm and the emission wavelength was 455 nm for AMCA substrates, the excitation wavelength was 355 nm and the emission wavelength was 450 nm for peptidyl AMC substrates, and the excitation wavelength was 430 nm and the emission wavelength was 535 nm for peptidyl AFC substrates.
(§2) The kinact/Ki for inhibitors were determined under pseudo-first order conditions using the progress curve method (Eckici et al. (2006) J. Med. Chem., 49: 5728-5749; Bieth (1995) Meth. Enzymol., 248: 59-84). Assay wells contained a mixture of inhibitor and AMC or AFC substrate in buffer. Aliquots of caspase were added to each well to initiate the assay. Hydrolysis of the AMC or AFC substrate was monitored fluorometrically for 45 min. To determine the inhibition parameters, time points for which the control ([I]=0) was linear were used. For each inhibitor, a kobs was calculated for at least four different concentrations of inhibitors via a nonlinear regression of the data according to the equation P=(vi/kobs)[1−exp(−kobst) (where product formation=P, […], and the first-order rate constant=kobs). If kobs varied linearly with [I], then the association constant kass was determined by linear regression analysis using kobs=(kass[I])/(1+[S]/Km) where [S] is the concentration of the substrate. […] Inhibition was measured in duplicate and the average of is reported. […]

caspase-2 [1] = biological target: T2, caspase-2 (Homo sapiens, UniProt P42575); assay: Blots of full-length huntingtin (23Q & 148Q) treated with caspase-2 plus inhibitor; conditions: for Inhibition of caspase-2 cleavage of full-length huntingtin (blot): 23Q & 148Q, at the higher concentration of 10 μM; for Caspase-2 cleavage of Htt: conclusion
T2 sequence (P42575 170-325 limits assumed): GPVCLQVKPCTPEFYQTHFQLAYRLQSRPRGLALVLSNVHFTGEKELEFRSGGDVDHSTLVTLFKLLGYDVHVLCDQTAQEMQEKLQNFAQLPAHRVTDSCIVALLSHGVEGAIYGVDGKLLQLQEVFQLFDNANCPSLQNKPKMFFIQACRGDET
T2 sequence (P42575 348-452 limits assumed): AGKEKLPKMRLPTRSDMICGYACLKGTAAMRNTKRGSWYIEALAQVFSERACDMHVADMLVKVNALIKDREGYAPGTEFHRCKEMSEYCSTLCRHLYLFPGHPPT

caspase-2 [2] = biological target: T2, caspase-2; assay: Irreversible inhibitor kinetic assay (progress curve), caspase-2, substrate Ac-VDVAD-AMC; conditions: casp-2; duplicate, SD included
Text: as §1, §2

caspase-6 = biological target: T3, caspase-6 (Homo sapiens, UniProt P55212); assay: Blots of full-length huntingtin (23Q & 148Q) treated with caspase-6 plus inhibitor; conditions: for Proteolysis of Htt at amino acid 586 (caspase-6 site): 1-100 nM; for Inhibition of caspase-6 cleavage of full-length huntingtin (blot): 23Q & 148Q, at 1.0 μM and 10 μM; for Blocking the cleavage of Htt at amino acid 586 mediated by caspase-6: conclusion
T3 construct: gift: Guy Salvesen's laboratory, Burnham Institute (La Jolla, Calif.)
T3 sequence (P55212 24-179 limits assumed): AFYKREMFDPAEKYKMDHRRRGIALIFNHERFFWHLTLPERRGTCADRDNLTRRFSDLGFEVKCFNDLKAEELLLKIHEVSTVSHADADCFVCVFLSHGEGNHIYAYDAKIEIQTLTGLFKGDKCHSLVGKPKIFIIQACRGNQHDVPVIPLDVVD
T3 sequence (P55212 194-293 limits assumed): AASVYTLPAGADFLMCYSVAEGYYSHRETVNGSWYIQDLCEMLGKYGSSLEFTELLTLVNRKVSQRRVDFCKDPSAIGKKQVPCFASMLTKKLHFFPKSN

T1 sequence (Q14790 217-374 limits assumed): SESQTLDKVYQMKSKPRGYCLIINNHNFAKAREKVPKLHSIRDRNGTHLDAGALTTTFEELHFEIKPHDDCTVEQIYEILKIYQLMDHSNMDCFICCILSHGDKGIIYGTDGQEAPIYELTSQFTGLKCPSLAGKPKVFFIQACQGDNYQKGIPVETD
T1 sequence (Q14790 385-479 limits assumed): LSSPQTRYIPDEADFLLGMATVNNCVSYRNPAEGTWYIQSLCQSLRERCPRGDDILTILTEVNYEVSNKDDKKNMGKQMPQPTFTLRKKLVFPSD

C[C@@](NS(=O)(=O)Cc1ccccc1)(c1cn([C@@H](CC(=O)O)C(=O)COc2c(F)c(F)cc(F)c2F)nn1)C1CCCCC1 [MJL-001i]
kinact/Ki (caspase-8): 82,850 ± 1,150 s^−1/M^−1
Inhibition of caspase-2 cleavage of full-length huntingtin (blot) (caspase-2 [1]): slight inhibition
Caspase-2 cleavage of Htt (caspase-2 [1]): do not inhibit
kass (kinact/Ki, footnote a) (caspase-2 [2]): 33.0 ± 0.5 s^−1/M^−1
Proteolysis of Htt at amino acid 586 (caspase-6 site) (caspase-6): blocked
Inhibition of caspase-6 cleavage of full-length huntingtin (blot) (caspase-6): inhibition
Blocking the cleavage of Htt at amino acid 586 mediated by caspase-6 (caspase-6): affective at blocking

C[C@@](NC(=O)CCCC(=O)O)(c1cn([C@@H](CC(=O)O)C(=O)COc2c(F)c(F)cc(F)c2F)nn1)C1CCCCC1 [MJL-002i]
kinact/Ki (caspase-8): 30,650 ± 1,950 s^−1/M^−1
Caspase-2 cleavage of Htt (caspase-2 [1]): do not inhibit
kass (kinact/Ki, footnote a) (caspase-2 [2]): 2.0 ± 0.1 s^−1/M^−1
Proteolysis of Htt at amino acid 586 (caspase-6 site) (caspase-6): blocked
Inhibition of caspase-6 cleavage of full-length huntingtin (blot) (caspase-6): inhibition
Blocking the cleavage of Htt at amino acid 586 mediated by caspase-6 (caspase-6): affective at blocking

C[C@@](NC(=O)Cc1ccccc1)(c1cn([C@@H](CC(=O)O)C(=O)COc2c(F)c(F)cc(F)c2F)nn1)C1CCCCC1 [MJL-003i]
kinact/Ki (caspase-8): 60,000 ± 2,800 s^−1/M^−1
Inhibition of caspase-2 cleavage of full-length huntingtin (blot) (caspase-2 [1]): slight inhibition
Caspase-2 cleavage of Htt (caspase-2 [1]): do not inhibit
kass (kinact/Ki, footnote a) (caspase-2 [2]): 6.90 ± 0.3 s^−1/M^−1
Proteolysis of Htt at amino acid 586 (caspase-6 site) (caspase-6): blocked
Inhibition of caspase-6 cleavage of full-length huntingtin (blot) (caspase-6): inhibition
Blocking the cleavage of Htt at amino acid 586 mediated by caspase-6 (caspase-6): affective at blocking
